Kd data for 14 molecules are collected here from ChEMBL document CHEMBL3991601, “The target landscape of clinical kinase drugs” (Science, 2017).

By Kd is commonly meant the equilibrium constant for the complex coming apart.

Calls of active or inactive are those of the source. A value given as a limit tells only on which side of the number the result lay.

Experiment [1] addresses Citron Rho-interacting kinase (Homo sapiens, UniProt O14578).
Experiment [2] has as its target Dual specificity protein kinase CLK1 (Homo sapiens, UniProt P49759).
Experiment [3] has as its target Serine/threonine-protein kinase/endoribonuclease IRE1 (Homo sapiens, UniProt O75460).
For experiment [4], the target named is T1, Acyl-CoA dehydrogenase family member 11 (Homo sapiens, UniProt Q709F0).
T1 sequence (Q709F0 whole entry): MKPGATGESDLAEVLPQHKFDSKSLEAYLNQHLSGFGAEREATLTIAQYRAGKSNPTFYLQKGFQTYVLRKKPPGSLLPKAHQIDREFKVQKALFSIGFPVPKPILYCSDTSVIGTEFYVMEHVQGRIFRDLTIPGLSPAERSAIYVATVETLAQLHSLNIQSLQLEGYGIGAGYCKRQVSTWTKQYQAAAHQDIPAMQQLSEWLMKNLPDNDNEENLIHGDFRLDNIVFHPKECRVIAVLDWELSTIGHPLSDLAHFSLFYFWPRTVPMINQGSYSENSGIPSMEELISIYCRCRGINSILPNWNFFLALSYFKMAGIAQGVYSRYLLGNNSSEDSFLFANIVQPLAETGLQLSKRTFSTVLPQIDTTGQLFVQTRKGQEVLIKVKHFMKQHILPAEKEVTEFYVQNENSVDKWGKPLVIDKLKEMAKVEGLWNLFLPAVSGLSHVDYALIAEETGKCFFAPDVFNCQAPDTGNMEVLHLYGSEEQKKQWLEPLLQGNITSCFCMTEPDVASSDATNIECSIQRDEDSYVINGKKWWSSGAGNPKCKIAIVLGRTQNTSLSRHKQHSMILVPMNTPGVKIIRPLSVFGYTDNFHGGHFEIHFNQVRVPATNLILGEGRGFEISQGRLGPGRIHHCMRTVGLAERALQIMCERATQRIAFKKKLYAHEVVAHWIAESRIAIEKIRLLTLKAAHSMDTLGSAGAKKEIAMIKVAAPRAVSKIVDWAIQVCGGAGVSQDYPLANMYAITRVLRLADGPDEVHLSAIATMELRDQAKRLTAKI

For experiment [5], the target named is Cyclin-dependent kinase 6 (Homo sapiens, UniProt Q00534).
Experiment [6] addresses Serine/threonine-protein kinase 16 (Homo sapiens, UniProt O75716).
Experiment [7] addresses RAC-alpha serine/threonine-protein kinase (Homo sapiens, UniProt P31749).
In experiment [8] the target is T2, Cysteine--tRNA ligase, cytoplasmic (Homo sapiens, UniProt P49589).
T2 sequence (P49589 whole entry): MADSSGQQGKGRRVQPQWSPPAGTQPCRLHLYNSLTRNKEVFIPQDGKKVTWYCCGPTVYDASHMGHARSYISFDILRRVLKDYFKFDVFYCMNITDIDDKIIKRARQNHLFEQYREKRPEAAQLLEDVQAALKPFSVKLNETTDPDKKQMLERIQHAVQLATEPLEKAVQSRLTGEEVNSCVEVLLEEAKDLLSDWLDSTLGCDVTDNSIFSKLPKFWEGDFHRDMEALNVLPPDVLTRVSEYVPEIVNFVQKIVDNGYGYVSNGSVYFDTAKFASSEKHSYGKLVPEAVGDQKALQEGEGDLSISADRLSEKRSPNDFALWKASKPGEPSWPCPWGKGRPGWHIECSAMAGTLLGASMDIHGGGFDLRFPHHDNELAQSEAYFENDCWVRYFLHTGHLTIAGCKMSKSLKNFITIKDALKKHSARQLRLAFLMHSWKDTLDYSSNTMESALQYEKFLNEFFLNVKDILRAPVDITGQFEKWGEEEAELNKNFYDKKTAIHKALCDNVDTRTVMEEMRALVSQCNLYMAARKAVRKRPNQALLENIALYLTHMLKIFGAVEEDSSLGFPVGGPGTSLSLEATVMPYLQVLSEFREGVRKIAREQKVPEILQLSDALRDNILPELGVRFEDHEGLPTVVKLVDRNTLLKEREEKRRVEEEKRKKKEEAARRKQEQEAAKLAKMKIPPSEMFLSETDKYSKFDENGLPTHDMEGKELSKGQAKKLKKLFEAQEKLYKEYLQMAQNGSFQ

Experiment [9] concerns the target T3, ATP-dependent RNA helicase DDX42 (Homo sapiens, UniProt Q86XP3).
T3 sequence (Q86XP3 whole entry): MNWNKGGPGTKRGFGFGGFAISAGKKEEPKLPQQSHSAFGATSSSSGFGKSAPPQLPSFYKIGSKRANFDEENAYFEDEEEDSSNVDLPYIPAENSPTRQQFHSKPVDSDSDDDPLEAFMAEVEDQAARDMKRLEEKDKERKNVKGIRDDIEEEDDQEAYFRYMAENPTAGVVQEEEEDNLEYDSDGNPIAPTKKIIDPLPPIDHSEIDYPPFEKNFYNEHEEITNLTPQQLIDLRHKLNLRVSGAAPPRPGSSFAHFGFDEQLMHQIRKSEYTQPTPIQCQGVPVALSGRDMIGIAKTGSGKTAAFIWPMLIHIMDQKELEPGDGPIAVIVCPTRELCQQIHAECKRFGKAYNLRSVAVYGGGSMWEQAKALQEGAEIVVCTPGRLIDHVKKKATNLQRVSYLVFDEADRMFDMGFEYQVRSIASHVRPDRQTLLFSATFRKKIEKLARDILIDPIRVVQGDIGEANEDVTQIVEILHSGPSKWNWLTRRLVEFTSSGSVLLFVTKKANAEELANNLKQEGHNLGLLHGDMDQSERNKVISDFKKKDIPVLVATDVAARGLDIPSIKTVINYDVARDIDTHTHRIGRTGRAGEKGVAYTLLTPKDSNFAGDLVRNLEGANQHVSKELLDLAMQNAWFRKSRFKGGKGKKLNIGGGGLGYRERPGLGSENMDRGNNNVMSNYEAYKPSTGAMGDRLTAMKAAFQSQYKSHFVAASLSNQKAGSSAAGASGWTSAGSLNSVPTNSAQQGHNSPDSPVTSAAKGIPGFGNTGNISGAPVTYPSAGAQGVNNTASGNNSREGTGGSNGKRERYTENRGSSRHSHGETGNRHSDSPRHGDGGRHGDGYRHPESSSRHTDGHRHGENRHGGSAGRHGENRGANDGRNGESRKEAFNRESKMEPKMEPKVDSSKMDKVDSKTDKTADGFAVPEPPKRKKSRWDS

In experiment [10] the target is Insulin-like growth factor 1 receptor (Homo sapiens, UniProt P08069).
Further: in the data inactive means no Kd found up to 30 µM.

Serine/threonine-protein kinase 16, sequence (O75716 whole entry): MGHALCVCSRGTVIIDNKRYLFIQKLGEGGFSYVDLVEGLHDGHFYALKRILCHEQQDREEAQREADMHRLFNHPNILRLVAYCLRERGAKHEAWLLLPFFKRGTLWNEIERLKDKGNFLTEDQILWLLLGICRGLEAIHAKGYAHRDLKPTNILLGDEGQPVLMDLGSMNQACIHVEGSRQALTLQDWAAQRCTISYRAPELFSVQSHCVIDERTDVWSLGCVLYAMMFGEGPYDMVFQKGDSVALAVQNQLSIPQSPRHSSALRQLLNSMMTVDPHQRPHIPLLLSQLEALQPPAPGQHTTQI
Dual specificity protein kinase CLK1, sequence (P49759 whole entry): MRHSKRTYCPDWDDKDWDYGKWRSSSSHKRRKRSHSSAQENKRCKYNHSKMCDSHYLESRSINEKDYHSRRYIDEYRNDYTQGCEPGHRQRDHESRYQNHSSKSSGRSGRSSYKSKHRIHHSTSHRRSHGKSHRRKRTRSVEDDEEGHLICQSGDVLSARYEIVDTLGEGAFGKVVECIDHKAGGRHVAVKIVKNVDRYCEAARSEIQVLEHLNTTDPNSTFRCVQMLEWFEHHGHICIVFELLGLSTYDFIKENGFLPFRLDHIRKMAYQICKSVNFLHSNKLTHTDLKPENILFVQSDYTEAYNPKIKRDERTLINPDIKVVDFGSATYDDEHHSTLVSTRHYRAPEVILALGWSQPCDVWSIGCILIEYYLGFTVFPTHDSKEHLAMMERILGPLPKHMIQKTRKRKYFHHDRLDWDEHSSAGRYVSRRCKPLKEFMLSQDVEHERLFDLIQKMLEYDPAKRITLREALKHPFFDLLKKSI
Serine/threonine-protein kinase/endoribonuclease IRE1, sequence (O75460 whole entry): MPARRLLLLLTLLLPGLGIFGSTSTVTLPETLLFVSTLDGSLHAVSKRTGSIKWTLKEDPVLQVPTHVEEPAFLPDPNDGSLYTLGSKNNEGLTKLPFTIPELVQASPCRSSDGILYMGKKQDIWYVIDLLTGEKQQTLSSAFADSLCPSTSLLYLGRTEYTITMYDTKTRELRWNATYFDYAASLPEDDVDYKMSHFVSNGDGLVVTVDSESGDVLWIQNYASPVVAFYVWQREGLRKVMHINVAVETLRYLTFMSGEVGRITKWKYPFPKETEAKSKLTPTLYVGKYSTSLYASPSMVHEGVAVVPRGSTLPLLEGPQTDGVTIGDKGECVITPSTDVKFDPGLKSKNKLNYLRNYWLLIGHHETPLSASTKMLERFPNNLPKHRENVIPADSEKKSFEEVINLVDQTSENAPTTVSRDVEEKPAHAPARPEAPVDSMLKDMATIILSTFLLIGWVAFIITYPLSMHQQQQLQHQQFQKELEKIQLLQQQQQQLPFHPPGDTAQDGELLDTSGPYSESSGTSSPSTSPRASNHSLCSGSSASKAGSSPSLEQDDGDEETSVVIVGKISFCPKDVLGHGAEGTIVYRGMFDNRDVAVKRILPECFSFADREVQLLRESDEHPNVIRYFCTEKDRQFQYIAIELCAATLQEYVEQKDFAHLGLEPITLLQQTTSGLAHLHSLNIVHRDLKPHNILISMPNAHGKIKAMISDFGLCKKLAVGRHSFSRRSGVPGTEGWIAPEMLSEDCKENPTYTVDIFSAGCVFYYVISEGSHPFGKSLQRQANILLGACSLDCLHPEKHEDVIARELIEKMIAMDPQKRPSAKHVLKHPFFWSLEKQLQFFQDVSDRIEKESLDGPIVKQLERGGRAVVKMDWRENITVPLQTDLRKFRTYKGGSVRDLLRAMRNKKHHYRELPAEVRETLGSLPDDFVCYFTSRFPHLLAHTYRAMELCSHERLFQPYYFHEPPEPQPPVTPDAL
Insulin-like growth factor 1 receptor, sequence (P08069 31-736 limits assumed): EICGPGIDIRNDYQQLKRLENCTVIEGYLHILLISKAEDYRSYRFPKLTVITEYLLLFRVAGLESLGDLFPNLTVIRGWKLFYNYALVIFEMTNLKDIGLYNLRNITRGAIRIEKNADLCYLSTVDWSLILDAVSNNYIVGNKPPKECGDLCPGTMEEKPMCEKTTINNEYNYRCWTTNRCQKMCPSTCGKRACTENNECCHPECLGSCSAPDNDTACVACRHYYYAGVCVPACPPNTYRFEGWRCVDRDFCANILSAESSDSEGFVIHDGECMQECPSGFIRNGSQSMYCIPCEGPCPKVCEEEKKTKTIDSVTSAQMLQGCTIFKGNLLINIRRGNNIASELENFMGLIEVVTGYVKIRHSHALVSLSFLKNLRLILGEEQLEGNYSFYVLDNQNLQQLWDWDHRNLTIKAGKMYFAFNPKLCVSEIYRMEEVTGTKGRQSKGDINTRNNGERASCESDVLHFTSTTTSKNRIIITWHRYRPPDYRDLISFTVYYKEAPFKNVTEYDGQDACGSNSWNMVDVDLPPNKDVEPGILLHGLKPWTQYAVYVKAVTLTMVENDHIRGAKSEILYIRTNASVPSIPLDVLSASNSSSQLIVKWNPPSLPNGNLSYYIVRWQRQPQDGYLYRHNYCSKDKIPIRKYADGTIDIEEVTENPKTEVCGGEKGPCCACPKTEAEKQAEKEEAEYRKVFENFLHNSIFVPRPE
Insulin-like growth factor 1 receptor, sequence (P08069 741-1367 limits assumed): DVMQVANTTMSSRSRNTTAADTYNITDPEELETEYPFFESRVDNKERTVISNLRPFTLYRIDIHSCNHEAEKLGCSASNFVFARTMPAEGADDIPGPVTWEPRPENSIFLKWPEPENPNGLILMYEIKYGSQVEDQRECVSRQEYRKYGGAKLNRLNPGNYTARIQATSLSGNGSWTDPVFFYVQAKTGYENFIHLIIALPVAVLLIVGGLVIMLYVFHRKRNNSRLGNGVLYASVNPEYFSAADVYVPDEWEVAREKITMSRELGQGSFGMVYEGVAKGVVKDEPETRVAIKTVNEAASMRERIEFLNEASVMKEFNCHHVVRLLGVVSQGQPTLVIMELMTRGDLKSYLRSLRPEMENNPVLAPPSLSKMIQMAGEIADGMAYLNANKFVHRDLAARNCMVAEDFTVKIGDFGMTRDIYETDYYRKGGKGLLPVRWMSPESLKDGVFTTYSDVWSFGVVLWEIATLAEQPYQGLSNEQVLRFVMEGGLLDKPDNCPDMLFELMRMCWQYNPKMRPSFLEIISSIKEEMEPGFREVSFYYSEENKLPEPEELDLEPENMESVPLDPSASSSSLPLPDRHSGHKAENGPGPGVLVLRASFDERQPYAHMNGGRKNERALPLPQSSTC
RAC-alpha serine/threonine-protein kinase, sequence (P31749 whole entry): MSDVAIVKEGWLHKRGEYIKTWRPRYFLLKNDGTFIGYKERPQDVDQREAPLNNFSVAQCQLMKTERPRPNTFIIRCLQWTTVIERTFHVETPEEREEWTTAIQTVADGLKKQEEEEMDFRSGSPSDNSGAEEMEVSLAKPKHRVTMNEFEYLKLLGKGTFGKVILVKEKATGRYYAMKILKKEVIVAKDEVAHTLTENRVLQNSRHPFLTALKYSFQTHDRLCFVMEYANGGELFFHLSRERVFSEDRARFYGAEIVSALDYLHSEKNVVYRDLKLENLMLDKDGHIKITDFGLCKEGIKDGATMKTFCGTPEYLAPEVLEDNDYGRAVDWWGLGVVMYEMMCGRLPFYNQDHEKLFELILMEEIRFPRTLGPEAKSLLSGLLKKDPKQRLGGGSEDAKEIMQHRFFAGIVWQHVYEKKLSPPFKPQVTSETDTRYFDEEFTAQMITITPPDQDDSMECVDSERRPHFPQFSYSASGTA
Cyclin-dependent kinase 6, sequence (Q00534 whole entry): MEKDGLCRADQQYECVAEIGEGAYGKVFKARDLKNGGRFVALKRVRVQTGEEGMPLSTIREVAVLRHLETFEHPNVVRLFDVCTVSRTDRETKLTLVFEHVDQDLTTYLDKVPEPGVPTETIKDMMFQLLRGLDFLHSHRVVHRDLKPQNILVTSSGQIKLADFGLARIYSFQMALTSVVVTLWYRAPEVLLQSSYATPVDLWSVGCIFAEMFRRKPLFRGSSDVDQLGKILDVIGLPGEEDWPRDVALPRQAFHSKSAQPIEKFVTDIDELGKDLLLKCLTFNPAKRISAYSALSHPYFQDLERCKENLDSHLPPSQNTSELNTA

As to `C=CCn1c(=O)c2cnc(Nc3ccc(N4CCN(C)CC4)cc3)nc2n1-c1cccc(C(C)(C)O)n1` [ADAVOSERTIB], the Kd in [1], in experiment [2], in [3], in experiment [4], in experiment [5] and in experiment [6] was > 30 µM (inactive) in each case. For the same molecule, the Kd in experiment [7], in [8] and in experiment [9] was > 30 µM (inactive) in each case.

As for `CCOc1ccn(-c2ccc(F)cc2)c(=O)c1C(=O)Nc1ccc(Oc2ccnc(N)c2Cl)c(F)c1` [BMS-777607], the Kd in experiment [1], in [3], in [4], in [5], in [6] and in experiment [7] was > 30 µM (inactive) throughout. The Kd in experiment [8], in experiment [10] and in experiment [9] was > 30 µM (inactive) throughout.

With `CC1(C)CNc2cc(NC(=O)c3cccnc3NCc3ccncc3)ccc21` [MOTESANIB], the Kd in [4], in [5], in [8] and in experiment [9] was > 30 µM (inactive) in each case.

As to `COc1cc2c(N3CCN(C(=O)Nc4ccc(OC(C)C)cc4)CC3)ncnc2cc1OCCCN1CCCCC1` [TANDUTINIB], the Kd in experiment [4], in experiment [5] and in [9] was > 30 µM (inactive) each time.

Turning to `O=S(=O)(c1cccc2cnccc12)N1CCCNCC1` [FASUDIL], the Kd in experiment [1] is 48.9 µM (active); in experiment [2], 0.152 µM; in experiment [3], > 30 µM (inactive); in experiment [4], > 30 µM (inactive); in [5], > 30 µM (inactive); in [6], > 30 µM (inactive). Also, the Kd in experiment [8], in experiment [10] and in experiment [9] was > 30 µM (inactive) each time.

As to `CCN(CCCOc1ccc2c(Nc3cc(CC(=O)Nc4cccc(F)c4)n[nH]3)ncnc2c1)CCOP(=O)(O)O` [BARASERTIB], the Kd in experiment [1], in [2], in [3], in experiment [4], in [5] and in experiment [6] was > 30 µM (inactive) in each case. The Kd in experiment [7], in [8] and in [9] was > 30 µM (inactive) each time.

`CN(C)C/C=C/C(=O)Nc1cc2c(Nc3ccc(F)c(Cl)c3)ncnc2cc1O[C@H]1CCOC1` [AFATINIB]: the Kd in experiment [4], in [5], in [8] and in experiment [9] was > 30 µM (inactive) in each case.

For `Cn1cnc2c(F)c(Nc3ccc(Br)cc3Cl)c(C(=O)NOCCO)cc21` [SELUMETINIB], the Kd in experiment [4], in experiment [5], in experiment [8] and in [9] was > 30 µM (inactive) in each case.

Take `Cn1c(=O)n(-c2ccc(C(C)(C)C#N)cc2)c2c3cc(-c4cnc5ccccc5c4)ccc3ncc21` [DACTOLISIB]: the Kd in experiment [1], in [2], in [3], in [4], in experiment [5] and in experiment [6] was > 30 µM (inactive) throughout. Also, the Kd in experiment [8] and in experiment [9] was > 30 µM (inactive) each time.

With `CN1CCN(c2nc(C3=C(c4c[nH]c5ccccc45)C(=O)NC3=O)c3ccccc3n2)CC1` [SOTRASTAURIN], the Kd in experiment [1], in experiment [2], in experiment [3], in experiment [5], in experiment [6] and in experiment [7] was > 30 µM (inactive) throughout. Moreover, the Kd in [8] and in experiment [10] was > 30 µM (inactive) throughout.

Take `COc1cc2c(Oc3ccc4[nH]c(C)cc4c3F)ncnc2cc1OCCCN1CCCC1` [CEDIRANIB]: the Kd in [4], in [5], in experiment [8] and in experiment [9] was > 30 µM (inactive) in each case.

On to `C[C@]1(O)C[C@@H](c2nc(-c3ccc4ccc(-c5ccccc5)nc4c3)c3c(N)nccn32)C1` [LINSITINIB], for which the Kd in experiment [1], in experiment [2], in experiment [3], in experiment [4], in experiment [5] and in [6] was > 30 µM (inactive) in each case. The Kd in [8] and in experiment [9] was > 30 µM (inactive) throughout.

`CN(c1ncccc1CNc1nc(Nc2ccc3c(c2)CC(=O)N3)ncc1C(F)(F)F)S(C)(=O)=O` [PF-00562271]: the Kd was > 30 µM (inactive) in experiment [1]; 0.363 µM (active) in experiment [2]; > 30 µM (inactive) in [3]; > 30 µM (inactive) in experiment [4]; > 30 µM (inactive) in experiment [5]; 0.138 µM (active) in experiment [6]. For the same molecule, the Kd in [8] and in [9] was > 30 µM (inactive) throughout.

As for `C[C@@]1(C(=O)Nc2ccc(F)nc2)CCCN1c1nc(Nc2cc(C3CC3)n[nH]2)c2cccn2n1` [BMS-754807], the Kd in [4], in experiment [5], in experiment [8] and in experiment [9] was > 30 µM (inactive) each time.
